Source: EP3024823B1, “INTERCALATING AMINO ACIDS” (priority 2013, dated 2015)
Values after ≈ are worked out from the molar mass of the structure shown.

Legend:
PylRS_AF = molecular target: T1, PylRS_AF (Methanosarcina mazei, UniProt Q8PWY1, Y306A/Y384F); assay: PylRS_AF-mediated amber suppression in GFP-Y39TAG (GFP expression in E. coli); type: cell-based; conditions: for yield of purified GFP-Y39→ncAA / GFP expression, SDS PAGE of Ni-NTA-purified GFP / expression of full-length GFP by cellular fluorescence: E. coli; for yield of purified GFP-Y39→ncAA / expression of full-length GFP by cellular fluorescence: PylRS_AF; for efficiency and accuracy of incorporation into peptides: Figure 2, whole cell fluorescence; for GFP expression, SDS PAGE of Ni-NTA-purified GFP: pREP-PylRS_AF, pBAD_GFP-Y39TAG
T1 construct: expressed in transfected cells
Excerpt: (§1) Protein Expression and Purification. All proteins were expressed from pBAD vectors and purified using a C-terminal His6 tag. For expression of proteins containing ncAA, E. coli cells were co-transformed with pBAD plasmid containing the target gene with amber codon (pBAD_GFP-39TAG, pBAD_TRX-R74-His6_TAG, pBAD_CmodC or pBAD_TAT, all conferring ampicillin resistance) and a plasmid coding for the respective PylRS mutant and tRNA^Pyl (pEVOL_PylRS_AF, pREP_PylRS_wt, _GF, _AF and PylRS_AF single or double alanine mutants). A single clone was picked and grown in Luria Broth (LB) media supplemented with suited antibiotics at 37 °C and 200 rpm shaking. 0.1 ml of this culture was used to inoculate 5 ml LB supplemented with the same antibiotics and different concentrations of the ncAA. The culture was incubated at 37 °C and 200 rpm shaking until OD600 of ∼0.4 - 0.6 and protein expression was induced with 0.02% (w/v) L-arabinose. The culture was harvested after 4 - 6 h of incubation by centrifugation (10 min, 3320 x g, room temperature). The pellet was lysed with B-Per lysis reagent (Thermo scientific) containing 1x Complete (-EDTA) protease inhibitor cocktail (Roche) and shaking at room temperature at 1400 rpm for 30 min. The suspension was pelleted by centrifugation (5 min, 20817 x g, room temperature) the supernatant was extracted with Ni-NTA agarose slurry (Qiagen) at an imidazole concentration of 10 mM by shaking at room temperature. The beads were washed with 350 µl 4x PBS and or two wash buffers (50 mM NaH2PO4, 300 mM NaCl, pH = 8.0, containing 20 - 50 mM imidazole). Proteins were eluted with elution buffer (50 mM NaH2PO4, 300 mM NaCl, pH = 8.0, containing 500 mM imidazole). For GFP-TAT protein containing ncAA 6, expressions were carried out in BL21 (DE3) gold and purification was conducted as above, but under denaturing conditions (8 M urea). Protein was refolded by stepwise dialysis against 20 mM Tris-HCl, pH = 8.0, 10 % glycerole with decreasing urea concentrations. Purity of the obtained proteins was analyzed by SDS PAGE and staining with Gelcode blue (Thermo Scientific) and quantified using a BCA assay (Pierce, Thermo Scientific). For GFP yield determination based on whole cell fluorescence, cell pellets from 3 ml expressions were washed twice with 3 ml 4x PBS (by centrifugation for 10 min at 3320 x g at room temperature and resuspension) and fluorescence was determined using a Tecan M200 plate reader using and excitation wavelength of 475 nm and an emission wavelength of 510 nm. Fluorescence values were corrected for cell densities based on OD600 - measurements. Generally, expressions were carried out in E. coli Top10 using carbenicillin selection for pEVOL plasmids and tetracyclin selection for pREP plasmids. Wild type thioredoxin and TRX-R74→6 were expressed in E. coli BL21 (DE3) gold cells. Expressed C-terminal fragment of PylRS_AF (aa 188-454) was stored in 10 mM HEPES-Na+, pH = 7.5, 5 mM MgCl2, 300 mM NaCl at -80 °C before use.
Next, the tRNA^Pyl/PylRS pair of Methanosarcina mazei was analyzed for its capability to mediate the selective incorporation of ncAA 3 into proteins in E. coli in response to the amber codon, TAG. E. coli were co-transformed with plasmids pEVOL-PylRS_wt (encoding wild type M. mazei PylRS and tRNA^Pyl) and pBAD_GFP-39TAG (encoding GFP with an amber mutation at position Y39 and a C-terminal His6 tag) and the culture induced with L-arabinose in the presence or absence of 1 mM ncAA 3 or Nε-(tert-butyloxycarbonyl)-L-lysine (Boc-Lys, ncAA 2), which is an efficiently processed substrate of PylRS_wt. However, expression of full-length GFP was only detected for ncAA 2 by cellular fluorescence. […] Among amino acids that constitute the methyl-pyrroline binding pocket of PylRS, Y306 is a main component of the rear part and plays a critical role in discriminating against larger, Nε-carbamate-linked lysine derivatives. […]

PylRS_AF_D408A = molecular target: T2, PylRS_AF_D408A (Methanosarcina mazei, UniProt Q8PWY1, D408A/Y306A/Y384F); assay: PylRS_AF D408A-mediated amber suppression in GFP-Y39TAG (cellular GFP expression in E. coli); type: cell-based; conditions: pREP_PylRS_AF_D408A, pBAD_GFP-39TAG
T2 construct: expressed in transfected cells
Excerpt: (§2) Protein Expression and Purification. All proteins were expressed from pBAD vectors and purified using a C-terminal His6 tag. For expression of proteins containing ncAA, E. coli cells were co-transformed with pBAD plasmid containing the target gene with amber codon (pBAD_GFP-39TAG, pBAD_TRX-R74-His6_TAG, pBAD_CmodC or pBAD_TAT, all conferring ampicillin resistance) and a plasmid coding for the respective PylRS mutant and tRNA^Pyl (pEVOL_PylRS_AF, pREP_PylRS_wt, _GF, _AF and PylRS_AF single or double alanine mutants). A single clone was picked and grown in Luria Broth (LB) media supplemented with suited antibiotics at 37 °C and 200 rpm shaking. 0.1 ml of this culture was used to inoculate 5 ml LB supplemented with the same antibiotics and different concentrations of the ncAA. […] Purity of the obtained proteins was analyzed by SDS PAGE and staining with Gelcode blue (Thermo Scientific) and quantified using a BCA assay (Pierce, Thermo Scientific). For GFP yield determination based on whole cell fluorescence, cell pellets from 3 ml expressions were washed twice with 3 ml 4x PBS (by centrifugation for 10 min at 3320 x g at room temperature and resuspension) and fluorescence was determined using a Tecan M200 plate reader using and excitation wavelength of 475 nm and an emission wavelength of 510 nm. Fluorescence values were corrected for cell densities based on OD600 - measurements. […]

PylRS_wt = molecular target: T3, PylRS_wt (Methanosarcina mazei, UniProt Q8PWY1); assay: PylRS_wt-mediated amber suppression in GFP-Y39TAG (GFP expression in E. coli); type: cell-based; conditions: for expression of full-length GFP by cellular fluorescence: pEVOL-PylRS_wt, pBAD_GFP-39TAG, 1 mM ncAA; for GFP expression, SDS PAGE of Ni-NTA-purified GFP: pREP-PylRS_wt, pBAD_GFP-Y39TAG
T3 construct: expressed in transfected cells
Excerpt: as §1, with “Protein was refolded by stepwise dialysis against 20 mM Tris-HCl, pH = 8.0, 10 % glycerole with decreasing urea concentrations.” left out, “Generally, expressions were carried out in E. coli Top10 using carbenicillin selection for pEVOL plasmids and tetracyclin selection for pREP plasmids. Wild type thioredoxin and TRX-R74→6 were expressed in E. coli BL21 (DE3) gold cells. Expressed C-terminal fragment of PylRS_AF (aa 188-454) was stored in 10 mM HEPES-Na+, pH = 7.5, 5 mM MgCl2, 300 mM NaCl at -80 °C before use.” left out
Next, the tRNA^Pyl/PylRS pair of Methanosarcina mazei was analyzed for its capability to mediate the selective incorporation of ncAA 3 into proteins in E. coli in response to the amber codon, TAG. […] However, expression of full-length GFP was only detected for ncAA 2 by cellular fluorescence. […]

PylRS_GF = molecular target: T4, PylRS_GF (Methanosarcina mazei, UniProt Q8PWY1, Y306G/Y384F); assay: PylRS_GF-mediated amber suppression in GFP-Y39TAG (GFP expression in E. coli); type: cell-based; conditions: pREP-PylRS_GF (Y306G), pBAD_GFP-Y39TAG
T4 construct: expressed in transfected cells
Excerpt: as §2

PylRS_AF_L407A = molecular target: T5, PylRS_AF_L407A (Methanosarcina mazei, UniProt Q8PWY1, L407A/Y306A/Y384F); assay: PylRS_AF L407A-mediated amber suppression in GFP-Y39TAG (cellular GFP expression in E. coli); type: cell-based; conditions: pREP_PylRS_AF_L407A, pBAD_GFP-39TAG
T5 construct: expressed in transfected cells
Excerpt: as §2

Solubility of the ncAA = type: physicochemical; conditions: limited solubility
[1] = pBAD_GFP-39TAG, 1 mM ncAA, non-optimized conditions

T3 sequence (Q8PWY1 whole entry): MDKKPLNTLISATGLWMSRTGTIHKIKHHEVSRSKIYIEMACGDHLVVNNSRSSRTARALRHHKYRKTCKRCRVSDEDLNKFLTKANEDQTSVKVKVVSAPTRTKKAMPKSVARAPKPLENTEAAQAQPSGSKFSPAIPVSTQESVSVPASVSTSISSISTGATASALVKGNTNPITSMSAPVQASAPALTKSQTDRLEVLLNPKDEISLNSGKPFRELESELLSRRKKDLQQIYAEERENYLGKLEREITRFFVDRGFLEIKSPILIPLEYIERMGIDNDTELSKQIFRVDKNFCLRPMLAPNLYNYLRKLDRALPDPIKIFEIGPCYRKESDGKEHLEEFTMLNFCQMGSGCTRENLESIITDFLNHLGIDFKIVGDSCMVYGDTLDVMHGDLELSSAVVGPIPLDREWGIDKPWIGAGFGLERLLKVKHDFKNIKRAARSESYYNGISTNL
T1 sequence (Q8PWY1 whole entry Y306A/Y384F): as the sequence (Q8PWY1 whole entry) above, with Y306A, Y384F counted along it
T4 sequence (Q8PWY1 whole entry Y306G/Y384F): as the sequence (Q8PWY1 whole entry) above, with Y306G, Y384F counted along it
T5 sequence (Q8PWY1 whole entry Y306A/Y384F/L407A): as the sequence (Q8PWY1 whole entry) above, with Y306A, Y384F, L407A counted along it
T2 sequence (Q8PWY1 whole entry Y306A/Y384F/D408A): as the sequence (Q8PWY1 whole entry) above, with Y306A, Y384F, D408A counted along it

## N[C@@H](CCCCNC(=O)c1cc2ccccc2cn1)C(=O)O [ncAA 6, Nε-(isoquinoline-3-carbonyl)-L-lysine]
PylRS_AF; [1]
  yield of purified GFP-Y39→ncAA: 1.4 mg/L
PylRS_AF
  efficiency and accuracy of incorporation into peptides: best results

## CC(C)(C)OC(=O)NCCCC[C@H](N)C(=O)O [ncAA 2, Nε-(tert-butyloxycarbonyl)-L-lysine, reference compound]
PylRS_AF_D408A
  cellular GFP expression: significant levels
PylRS_wt
  expression of full-length GFP by cellular fluorescence: detected
PylRS_GF
  GFP expression, SDS PAGE of Ni-NTA-purified GFP: significant expression
PylRS_AF_L407A
  cellular GFP expression: significant levels
PylRS_AF
  GFP expression, SDS PAGE of Ni-NTA-purified GFP: significant expression

## N[C@@H](CCCCNC(=O)c1ccc2ccccc2c1)C(=O)O [ncAA 7, Nε-(naphtalene-2-carbonyl)-L-lysine]
Solubility of the ncAA
  solubility: ~100 µM (≈ 30 µg/mL)
PylRS_AF; pBAD_GFP-39TAG
  expression of full-length GFP by cellular fluorescence: no expression

## N[C@@H](CCCCNC(=O)c1nc2ccccc2nc1O)C(=O)O [Nε-(2-hydroxyquinoxaline-3-carbonyl)-L-lysine]
PylRS_AF; pBAD_GFP-39TAG
  expression of full-length GFP by cellular fluorescence: no significant fluorescence increase compared to background

## (S)-2-amino-6-(((benzo[h]quinolin-2-ylmethoxy)carbonyl)amino) hexanoic acid [ncAA 8]
PylRS_AF
  efficiency and accuracy of incorporation into peptides: best results

## N[C@@H](CCCCNC(=O)c1cnc2ccccc2n1)C(=O)O [ncAA 3, Nε-(quinoxaline-2-carbonyl)-L-lysine]
PylRS_wt
  expression of full-length GFP by cellular fluorescence: failure of amber suppression
  GFP expression, SDS PAGE of Ni-NTA-purified GFP: not recognized
PylRS_AF; [1]
  yield of purified GFP-Y39→ncAA: 1.4 mg/L

## N[C@@H](CCCCNC(=O)c1ccc2ccccc2n1)C(=O)O [ncAA 5, Nε-(quinoline-2-carbonyl)-L-lysine]
PylRS_AF_D408A
  cellular GFP expression: significant levels
PylRS_wt
  GFP expression, SDS PAGE of Ni-NTA-purified GFP: not recognized
PylRS_GF
  GFP expression, SDS PAGE of Ni-NTA-purified GFP: significant expression
PylRS_AF_L407A
  cellular GFP expression: significant levels
PylRS_AF; standard expression conditions
  yield of purified GFP-Y39→ncAA: > 11 mg/L
PylRS_AF; [1]
  yield of purified GFP-Y39→ncAA: 4.5 mg/L
PylRS_AF
  GFP expression, SDS PAGE of Ni-NTA-purified GFP: significant expression
